Experimental findings from ChEMBL document CHEMBL5352476, “A comprehensive overview of Artemisinin and its derivatives as anticancer agents” (Eur J Med Chem, 2023) are described below.

Data set [1] in a line: Cytotoxicity against human CCD 19Lu cells assessed as inhibition of cell growth. The data set is classed as toxicity, cell-based.
For data set [2], the system named is RL95-2. Description: Antiproliferative activity against human RL95-2 cells assessed as inhibition of cell growth by MTT assay. The data set is classed as functional, cell-based. The note with it: pooled result: one value given for 6 cell lines, strains, targets or settings. Background: Tetrazolium dyes change colour on reduction, which living cells bring about.

Data set [3] concerns Mus musculus. In words: Antitumor activity against human RL95-2 cells xenografted in BALB/c nude mouse assessed as tumor growth inhibition rate at 5.0 mg/kg, ip administered three times a week for 4 weeks relative to control. It counts as functional. The note with it: RL95-2, 672 h. For orientation: Xenograft models place foreign cells or tissue in a host animal.
For data set [4], the system named is HepG2. In words: Antiproliferative activity against human HepG2 cells assessed as inhibition of cell growth by MTT assay. The data set is classed as functional, cell-based.
Data set [5] concerns MDA-MB-231. In words: Antiproliferative activity against human MDA-MB-231 cells assessed as inhibition of cell growth. The data set is classed as functional, cell-based.
Data set [6] concerns HeLa. Description: Antiproliferative activity against human HeLa cells assessed as inhibition of cell growth. The data set is classed as functional, cell-based.
The test system of data set [7] is SK-BR-3. Description: Antiproliferative activity against human SK-BR-3 cells assessed as inhibition of cell growth. The data set is classed as functional, cell-based.
Data set [8] relates to HCT-116. Description: Antiproliferative activity against human HCT-116 cells assessed as inhibition of cell growth. It counts as functional, cell-based.
Data set [9] concerns HT-29. In words: Antiproliferative activity against human HT-29 cells assessed as inhibition of cell growth incubated for 72 hrs by MTT assay. The data set is classed as functional, cell-based. The settings on record: HT-29, 72 h.
Data set [10] relates to NCI-H460. Description: Antiproliferative activity against human NCI-H460 cells assessed as inhibition of cell growth incubated for 72 hrs by MTT assay. The note with it: NCI-H460, 72 h. The data set is classed as functional, cell-based.
In data set [11] the test system is MDA-MB-231. In words: Antiproliferative activity against human MDA-MB-231 cells assessed as inhibition of cell growth incubated for 72 hrs by MTT assay. The data set is classed as functional, cell-based. The settings on record: MDA-MB-231, 72 h.
The test system of data set [12] is U-87 MG. In words: Antiproliferative activity against human U-87 MG cells assessed as inhibition of cell growth incubated for 72 hrs by MTT assay. It counts as functional, cell-based, U-87MG ATCC.
Data set [13] concerns A549. In words: Antiproliferative activity against human A549 cells assessed as inhibition of cell growth incubated for 72 hrs by MTT assay. The data set is classed as functional, cell-based. The settings on record: A549, 72 h.
In data set [14] the test system is HL-60. Description: Antiproliferative activity against human HL-60 cells assessed as inhibition of cell growth incubated for 72 hrs by MTT assay. The settings on record: HL-60, 72 h. It counts as functional, cell-based.
Data set [15] is described as follows: Cytotoxicity against human WI-38 cells assessed as inhibition of cell growth incubated for 72 hrs by MTT assay. It counts as toxicity, cell-based.
Data set [16] has as its system RPMI-7951. Description: Antiproliferative activity against human RPMI-7951 cells assessed as inhibition of cell growth incubated for 24 hrs by MTT assay. The note with it: RPMI-7951, 24 h. The data set is classed as functional, cell-based.
Data set [17] relates to U-87 MG. In words: Antiproliferative activity against human U87 cells assessed as inhibition of cell growth incubated for 24 hrs by MTT assay. It counts as functional, cell-based, U-87MG ATCC.
Data set [18] has as its system U-87 MG. Description: Antiproliferative activity against human U87 cells assessed as inhibition of cell growth incubated for 72 hrs by MTT assay. The data set is classed as functional, cell-based, U-87MG ATCC.

By IC50 is commonly meant the midpoint of a concentration-inhibition curve. One may read the inhibition in vivo as the drop in the measured response relative to a control, in per cent.

In the case of `CCCCCCCCCCCCCCNC(=O)C[C@H]1O[C@@H]2O[C@@]3(C)CC[C@H]4[C@H](C)CC[C@@H]([C@H]1C)[C@@]24OO3`, the IC50 in [1] was 460 nM.
As for `C[C@H]1[C@@H](OCCNCCO[C@H]2O[C@@H]3O[C@@]4(C)CC[C@H]5[C@H](C)CC[C@@H]([C@H]2C)[C@@]35OO4)O[C@@H]2O[C@@]3(C)CC[C@H]4[C@H](C)CC[C@@H]1[C@@]24OO3`, the IC50 in [2] stood at 1160 nM. In addition, the inhibition in vivo at 5 mg/kg in data set [3] was 49.9%.
In the case of `CCCCCCCCCCCCNC(=O)C[C@H]1O[C@@H]2O[C@@]3(C)CC[C@H]4[C@H](C)CC[C@@H]([C@H]1C)[C@@]24OO3`, in data set [4], the IC50 came out at 1200 nM.
In the case of `C[C@H]1[C@@H](CCCOC(=O)NCCC[P+](c2ccccc2)(c2ccccc2)c2ccccc2)O[C@@H]2O[C@@]3(C)CC[C@H]4[C@H](C)CC[C@@H]1[C@@]24OO3`, the IC50 in data set [5], in [6], in data set [7] and in data set [8] was 820 nM throughout.
For the molecule `C[C@@H]1CC[C@H]2[C@@H](C)C(OCCNC(=O)c3ccc(COc4ccc(/C=C/S(=O)(=O)Nc5ccc(OC(F)(F)F)cc5)cc4)cc3)O[C@@H]3O[C@@]4(C)CC[C@@H]1[C@]32OO4` (stereo partly drawn), the IC50 in [9], in data set [10], in data set [11], in data set [12], in data set [13] and in [14] was 90 nM each time. Besides, in data set [15], the half-inhibitory concentration (IC50) at 72 h was found to be 90 nM.
With `COC(=O)C(Cc1ccc(OC(=O)CCC(=O)O[C@@H]2O[C@@H]3O[C@@]4(C)CC[C@H]5[C@H](C)CC[C@@H]([C@H]2C)[C@@]35OO4)cc1)NC(=O)CCC(=O)O[C@@H]1O[C@@H]2O[C@@]3(C)CC[C@H]4[C@H](C)CC[C@@H]([C@H]1C)[C@@]24OO3` (stereo partly drawn), the IC50 in [16] is 1760 nM.
Take `CCCCCCCCCCCC[C@@H](O)C[C@H]1O[C@@H]2O[C@@]3(C)CC[C@H]4[C@H](C)CC[C@@H]([C@H]1C)[C@@]24OO3`: in data set [4], the IC50 was 4400 nM.
As to `C[C@@H]1CC[C@H]2[C@@H](C)C(OCCOc3ccc(/C=C/S(=O)(=O)Nc4ccc(OC(F)(F)F)cc4)cc3)O[C@@H]3O[C@@]4(C)CC[C@@H]1[C@]32OO4` (stereo partly drawn), the IC50 in data set [9], in data set [10], in data set [11], in data set [12], in data set [13] and in data set [14] was 50 nM each time. The IC50 at 72 h in [15] is 50 nM.
Take `C[C@H]1[C@H](OC(=O)CCC(=O)OCc2ccc(OC(=O)CCC(=O)O[C@@H]3O[C@@H]4O[C@@]5(C)CC[C@H]6[C@H](C)CC[C@@H]([C@H]3C)[C@@]46OO5)cc2)O[C@@H]2O[C@@]3(C)CC[C@H]4[C@H](C)CC[C@@H]1[C@@]24OO3`: the IC50 in data set [16] stood at 50 nM.
For `CCCCCCCCCCCC[C@H](O)C[C@H]1O[C@@H]2O[C@@]3(C)CC[C@H]4[C@H](C)CC[C@@H]([C@H]1C)[C@@]24OO3`, in [4], the IC50 is 2800 nM.
Turning to `C[C@H]1[C@@H](OCCCN=C=S)O[C@@H]2O[C@@]3(C)CC[C@H]4[C@H](C)CC[C@@H]1[C@@]24OO3`, the IC50 in data set [17] came out at 7410 nM; in [18], 7350 nM.
